How the values were obtained:
ALDH1A1 = target: T1, ALDH1A1 (Homo sapiens, UniProt P00352); assay: Inhibitor screening using purified enzymes: ALDH1A1 activity, retinoic acid production by HPLC; assay type: biochemical; conditions: purified enzyme
T1 sequence (P00352 1-501): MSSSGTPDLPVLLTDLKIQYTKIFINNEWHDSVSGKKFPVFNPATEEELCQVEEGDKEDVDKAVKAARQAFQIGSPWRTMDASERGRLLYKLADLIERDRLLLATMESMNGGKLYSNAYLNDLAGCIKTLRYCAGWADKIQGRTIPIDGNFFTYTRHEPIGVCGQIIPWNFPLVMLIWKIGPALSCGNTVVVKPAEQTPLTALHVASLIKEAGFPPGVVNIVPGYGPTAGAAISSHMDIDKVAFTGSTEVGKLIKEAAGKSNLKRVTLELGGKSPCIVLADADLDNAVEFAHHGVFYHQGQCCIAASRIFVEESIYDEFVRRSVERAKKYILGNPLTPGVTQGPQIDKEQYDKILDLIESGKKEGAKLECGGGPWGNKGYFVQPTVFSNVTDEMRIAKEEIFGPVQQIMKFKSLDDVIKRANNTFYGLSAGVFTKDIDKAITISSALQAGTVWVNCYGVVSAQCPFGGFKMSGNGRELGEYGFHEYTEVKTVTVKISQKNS
In short: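 Purified His-tagged human enzymes in 10 mM HEPES pH 8.0, 150 mM KCl, 2 mM EDTA with 2 mM NAD, all-trans-retinal substrate; retinoic acid quantified by HPLC. ALDH1A2 initial screen: 1 μg enzyme, 5 μM retinal, 5 μM inhibitor, 15 min, 37° C; IC50 runs: 0.5 μg enzyme, 0.5 μg retinal, 5 min, 37° C.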

ALDH2 = target: T2, ALDH2 (Homo sapiens, UniProt P05091); assay: Purified ALDH2 assay with propanal, NADH fluorescence; assay type: biochemical; conditions: purified enzyme
T2 construct: histidine-tag (N); made in house; host or cells: bacterial expression (pETite vector, IPTG induction)
T2 sequence (P05091 18-517): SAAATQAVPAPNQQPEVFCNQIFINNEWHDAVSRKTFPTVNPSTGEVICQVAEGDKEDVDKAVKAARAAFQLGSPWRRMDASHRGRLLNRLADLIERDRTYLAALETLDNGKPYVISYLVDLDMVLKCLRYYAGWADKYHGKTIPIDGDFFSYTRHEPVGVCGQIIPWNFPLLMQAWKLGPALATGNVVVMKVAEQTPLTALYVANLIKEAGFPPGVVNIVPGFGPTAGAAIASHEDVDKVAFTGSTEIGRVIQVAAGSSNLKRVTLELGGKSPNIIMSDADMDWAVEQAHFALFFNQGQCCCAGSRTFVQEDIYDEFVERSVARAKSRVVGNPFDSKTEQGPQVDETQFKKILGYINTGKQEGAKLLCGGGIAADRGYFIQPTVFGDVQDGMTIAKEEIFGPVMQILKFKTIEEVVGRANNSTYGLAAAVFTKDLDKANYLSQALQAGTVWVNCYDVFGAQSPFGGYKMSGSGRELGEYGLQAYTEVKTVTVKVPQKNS
In short: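 His-tagged human ALDH2 expressed in bacteria and purified. 2 μg enzyme incubated with 20 μM propanal and varying inhibitor concentrations at room temperature. Activity read as NADH fluorescence (Ex 350/Em 460 nm), with initial velocity from two consecutive readings over 1 minute.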

Row | IC50 (ALDH1A1) [µM] | IC50 (ALDH2) [µM] | Compound
1 | 1.65 | > 100 | O=C(c1cccc(Cl)c1)N1CCN(c2ccc([N+](=O)[O-])c(N3CCCC3)c2)CC1 [Compound 341, 3-Chlorophenyl-1-{4-[4-nitro-3-(pyrrolidin-1-yl)phenyl]piperazin-1-yl}methanone]
2 | 0.453 | 48.6 | O=C(c1ccc[nH]1)N1CCN(c2ccc([N+](=O)[O-])c(N3CCCC3)c2)CC1 [Compound 344, {4-[4-Nitro-3-(pyrrolidin-1-yl)phenyl]piperazin-1-yl}(1H-pyrrol-2-yl)methanone]
3 | 1.44 | > 100 | Cn1cccc1C(=O)N1CCN(c2ccc(-c3ccc([N+](=O)[O-])cc3)c(N3CCCCC3)c2)CC1 [Compound 373]

The remaining lines, values behind:

Row | Compound | IC50 (ALDH1A1) [µM] | IC50 (ALDH2) [µM]
4 | N#Cc1ccc(-n2cc(C(=O)Nc3cccc(F)c3)c(-c3ccc(NC(=O)C(Cl)Cl)cc3)n2)cc1 [Compound 316a, 3-(4-Dichloroacetamidophenyll)-N-(3-fluorophenyl)-1-(4-cyanophenyl)-1H-pyrazole-4-carboxamide] | 0.249 | 4
5 | O=C(c1ccccc1)N1CCN(c2ccc([N+](=O)[O-])c(N3CCCC3)c2)CC1 [Compound 339, Phenyl-1-{4-[4-nitro-3-(pyrrolidin-1-yl)phenyl]piperazin-1-yl}methanone] | 0.675 | 48.1
6 | CC(=O)n1cccc1C(=O)N1CCN(c2ccc([N+](=O)[O-])c(N3CCCC3)c2)CC1 [Compound 347, {4-[4-Nitro-3-(pyrrolidin-1-yl)phenyl]piperazin-1-yl}(1-acetyl-pyrrol-2yl)methanone] | 1.07 | 61.6
7 | Cn1cccc1C(=O)N1CCN(c2ccc(NC(=O)C(Cl)Cl)c(N3CCCC3)c2)CC1 [Compound 367, 1-[4-(4-N-Dichloroacetyl-3-(pyrrolidin-1-yl)phenyl]piperazin-1-yl](1-methyl-1H-pyrrol-2-yl)methanone] | 0.23 | > 80
8 | Cn1cccc1C(=O)N1CCN(c2ccc(NC(=O)CCl)c(N3CCCC3)c2)CC1 [Compound 372, 1-[4-(4-N-Chloroacetyl-3-(pyrrolidin-1-yl)phenyl]piperazin-1-yl](1-methyl-1H-pyrrol-2-yl)methanone] | 0.3 | 3.5
